In patent US4647693A, “Antibiotics DO-248-A and B and process for preparing the same” (Shionogi & Co., Ltd., priority 1984, dated 1987):
In brackets after ≈: the same amount, converted by molar mass. Entries after “also recorded” stand apart in the source; their conditions may differ. Read-outs that look alike come from different tables or passages of the source.

Columns and labels:
M. simiae KMC1302 = assay: MIC, two-fold dilution, Dubos Tween albumin liquid medium; format: cell-based; conditions: 336 h, read-out: minimal inhibitory concentration (MIC)
M. kansasii KMC1101 = assay: as above; format: cell-based; conditions: Mycobacterium kansasii, read-out: minimal inhibitory concentration (MIC)
M. szulgai KMC2401 = assay: as above; format: cell-based; conditions: 336 h, read-out: minimal inhibitory concentration (MIC)
M. xenopi KMC2301 = assay: as above; format: cell-based; conditions: Mycobacterium xenopi
[1] = system: M. avium-intracellulare clinical isolated strain 16; assay: as above; format: cell-based; conditions: 336 h, read-out: minimal inhibitory concentration (MIC)
M. tuberculosis H37Rv = assay: as above; format: cell-based; conditions: Mycobacterium tuberculosis, 336 h, 37° C., 2 weeks, read-out: minimal inhibitory concentration (MIC)
Experimental: (§1) Fast-acid bacillus (0.01 mg) shown in Table 1 was inoculated into 2.0 ml of Dubos Tween albumin liquid medium and the minimal inhibitory concentration (MIC, μg/ml) of DO-248-A (Compound A), kanamycin (KM) and rifampicin (RFP) was measured by two-fold dilution method. The incubation temperature for Mycobacterium marinum was 28° C. and that for all other microorganisms was 37° C. The judgement was made generally 2 weeks later but 1 week later on M. furtuitum and M. chelonei and 5 weeks later on M. xenopi.

[2] = system: M. nonchromogenicum KMC3602; assay: as above; format: cell-based; conditions: 336 h, read-out: minimal inhibitory concentration (MIC)
M. chelonei KMC4201 = assay: as above; format: cell-based; conditions: read-out: minimal inhibitory concentration (MIC)
M. avium KMC3101 = assay: as above; format: cell-based; conditions: Mycobacterium avium, read-out: minimal inhibitory concentration (MIC)
M. bovis BCG = assay: microbe, parasite or virus in culture; format: cell-based; conditions: Mycobacterium tuberculosis variant bovis BCG, 336 h, read-out: minimal inhibitory concentration (MIC)
M. gordonae KMC2201 = assay: MIC, two-fold dilution, Dubos Tween albumin liquid medium; format: cell-based; conditions: Mycobacterium gordonae, read-out: minimal inhibitory concentration (MIC)
M. fortuitum KMC4101 = assay: as above; format: cell-based; conditions: Mycolicibacterium fortuitum, read-out: minimal inhibitory concentration (MIC)
[3] = system: M. intracellulare KMC3209; assay: as above; format: cell-based; conditions: Mycobacterium intracellulare, read-out: minimal inhibitory concentration (MIC)
M. scrofulaceum KMC2102 = assay: as above; format: cell-based; conditions: Mycobacterium scrofulaceum, read-out: minimal inhibitory concentration (MIC)
Solubility = format: physicochemical
[4] = system: M. aviumintracellulare, a causative microorganism of refractory atypical fast-acid disease; assay: Comparative antibacterial activity, in words; format: cell-based; conditions: for activity against the pathogenic bacterium of atypical fast-acid bacterium disease relative to kanamycin: compared with kanamycin
[5] = system: fast-acid bacteria including tubercle bacillus; assay: Antibacterial activity against fast-acid (acid-fast) bacteria, in words; format: cell-based; conditions: for antibacterial activity against fast-acid (acid-fast) bacteria: in words
Experimental: as §1

[6] = system: kanamycin-resistant strains; assay: Antibacterial activity against resistant strains, in words; format: cell-based
Experimental: as §1

[7] = system: rifanpicin-resistant strains; assay: as above; format: cell-based
Experimental: as §1

[8] = M. simiae KMC1302, 37° C., 2 weeks
[9] = 336 h, M. kansasii KMC1101, 37° C., 2 weeks
[10] = M. szulgai KMC2401, 37° C., 2 weeks
[11] = M. xenopi KMC2301, 37° C., 5 weeks, read-out: minimal inhibitory concentration (MIC)
[12] = M. avium-intracellulare clinical isolated strain 16, 37° C., 2 weeks
[13] = M. nonchromogenicum KMC3602, 37° C., 2 weeks
[14] = 168 h, M. chelonei KMC4201, 37° C., 1 week
[15] = 336 h, M. avium KMC3101, 37° C., 2 weeks
[16] = 336 h, M. gordonae KMC2201, 37° C., 2 weeks
[17] = 168 h, M. fortuitum KMC4101, 37° C., 1 week
[18] = 336 h, M. intracellulare KMC3209, 37° C., 2 weeks
[19] = 336 h, M. scrofulaceum KMC2102, 37° C., 2 weeks

| SMILES | MIC (M. simiae KMC1302; [8]) [µg/mL] | MIC (M. kansasii KMC1101; [9]) [µg/mL] | MIC (M. szulgai KMC2401; [10]) [µg/mL] | MIC (M. xenopi KMC2301; [11]) [µg/mL] | MIC [1, 12] [µg/mL] | MIC (M. tuberculosis H37Rv) [µg/mL] | MIC [2, 13] [µg/mL] | MIC (M. chelonei KMC4201; [14]) [µg/mL] | MIC (M. avium KMC3101; [15]) [µg/mL] | MIC (M. bovis BCG) [µg/mL] | MIC (M. gordonae KMC2201; [16]) [µg/mL] | MIC (M. fortuitum KMC4101; [17]) [µg/mL] | MIC [3, 18] [µg/mL] | MIC (M. scrofulaceum KMC2102; [19]) [µg/mL] | activity against the pathogenic bacterium of atypical fast-acid bacterium disease relative to kanamycin [4] | antibacterial activity against fast-acid (acid-fast) bacteria [5] | effectiveness against kanamycin-resistant strains [6] | effectiveness against rifanpicin-resistant strains [7] | also measured |
| --- | --- | --- | --- | --- | --- | --- | --- | --- | --- | --- | --- | --- | --- | --- | --- | --- | --- | --- | --- |
| CO[C@H]1/C=C/O[C@@]2(C)Oc3c(C)c(O)c4c(O)c(c(/C=N/N5CCN(C)CC5)c(O)c4c3C2=O)NC(=O)/C(C)=C\C=C\[C@H](C)[C@H](O)[C@@H](C)[C@@H](O)[C@@H](C)[C@H](OC(C)=O)[C@@H]1C [RFP, rifampicin] | > 25 | 0.0125 (≈ 0.0152 µM) | 0.025 (≈ 0.0304 µM) | 0.00625 (≈ 0.00759 µM) | 3.13 (≈ 3.8 µM) | < 0.001 | 25 (≈ 30.4 µM) | 6.25 (≈ 7.59 µM) | 0.2 (≈ 0.243 µM) | < 0.001 | 0.0125 (≈ 0.0152 µM) | 3.13 (≈ 3.8 µM) | < 0.001 | 0.00313 (≈ 0.0038 µM) | – | – | – | – | – |
| CC(C)c1c(O)cc(C(NC(=N)N)C(=O)NCC(=O)O)cc1O (stereo not drawn) [DO-248-A, N-(α-guanidino-3,5-dihydroxy-4-isopropylphenylacetyl)glycine] | 6.25 (≈ 19.3 µM) | 0.00313 (≈ 0.00965 µM) | 3.13 (≈ 9.65 µM) | 0.39 (≈ 1.2 µM) | 0.1 (≈ 0.308 µM) | 0.05 (≈ 0.154 µM) | 12.5 (≈ 38.5 µM) | > 25 | 0.78 (≈ 2.4 µM) | 0.05 (≈ 0.154 µM) | 0.00625 (≈ 0.0193 µM) | > 25 | 0.025 (≈ 0.0771 µM) | 0.2 (≈ 0.617 µM) | more active | effective; also recorded: have antibacterial activity | effective; also recorded: have antibacterial activity | effective; also recorded: have antibacterial activity | Solubility (Solubility; in acetone): slightly soluble; Solubility (Solubility; in benzene): insoluble; Solubility (Solubility; in chloroform): slightly soluble; Solubility (Solubility; in dimethylformamide): readily soluble; Solubility (Solubility; in ethanol): readily soluble; Solubility (Solubility; in ether): insoluble; Solubility (Solubility; in ethylacetate): slightly soluble; Solubility (Solubility; in hexane): insoluble; Solubility (Solubility; in methanol): readily soluble; Solubility (Solubility; in water): soluble; effectiveness against M. aviumintracellulare relative to kanamycin and rifanpicin ([4]; compared with kanamycin and rifanpicin): more effective |
| NC[C@H]1O[C@H](O[C@H]2[C@H](O)[C@@H](O[C@H]3O[C@H](CO)[C@@H](O)[C@H](N)[C@H]3O)[C@H](N)C[C@@H]2N)[C@H](O)[C@@H](O)[C@@H]1O [KM, kanamycin] | – | – | – | – | – | 0.025 (≈ 0.0516 µM) | – | – | – | 0.00156 (≈ 0.00322 µM) | – | – | – | – | – | – | – | – | MIC (M. simiae KMC1302): 12.5 µg/mL (≈ 25.8 µM); MIC (M. kansasii KMC1101; KMC1101, 336 h): 6.25 µg/mL (≈ 12.9 µM); MIC (M. szulgai KMC2401): 1.56 µg/mL (≈ 3.22 µM); MIC (M. xenopi KMC2301; KMC2301, read-out: minimal inhibitory concentration (MIC)): 0.1 µg/mL (≈ 0.206 µM); MIC [1]: 6.25 µg/mL (≈ 12.9 µM); MIC [2]: > 25 µg/mL; MIC (M. chelonei KMC4201; KMC4201, 168 h): > 25 µg/mL; MIC (M. avium KMC3101; KMC3101, 336 h): 3.13 µg/mL (≈ 6.46 µM); MIC (M. gordonae KMC2201; KMC2201, 336 h): 0.39 µg/mL (≈ 0.805 µM); MIC (M. fortuitum KMC4101; KMC4101, 168 h): 25 µg/mL (≈ 51.6 µM); MIC ([3]; KMC3209, 336 h): 0.05 µg/mL (≈ 0.103 µM); MIC (M. scrofulaceum KMC2102; KMC2102, 336 h): 0.0125 µg/mL (≈ 0.0258 µM) |
| CCc1c(O)cc(C(NC(=N)N)C(=O)NCC(=O)O)cc1O (stereo not drawn) [DO-248-B, N-(α-guanidino-3,5-dihydroxy-4-ethylphenylacetyl)glycine] | – | – | – | – | – | – | – | – | – | – | – | – | – | – | more active | effective; also recorded: have antibacterial activity | have antibacterial activity | have antibacterial activity | effectiveness relative to DO-248-A ([5]; compared with DO-248-A): as effective as DO-248-A |
